Experimental data as given in paper PMC6315438 (Metabolites, 2018).

Target: T1, aryl hydrocarbon receptor (AHR) (Homo sapiens, UniProt P35869)
T1 construct: human AHR in liver cytosol of mice expressing human AHR; also HepG2 (40/6) cells
T1 sequence (P35869 11-848): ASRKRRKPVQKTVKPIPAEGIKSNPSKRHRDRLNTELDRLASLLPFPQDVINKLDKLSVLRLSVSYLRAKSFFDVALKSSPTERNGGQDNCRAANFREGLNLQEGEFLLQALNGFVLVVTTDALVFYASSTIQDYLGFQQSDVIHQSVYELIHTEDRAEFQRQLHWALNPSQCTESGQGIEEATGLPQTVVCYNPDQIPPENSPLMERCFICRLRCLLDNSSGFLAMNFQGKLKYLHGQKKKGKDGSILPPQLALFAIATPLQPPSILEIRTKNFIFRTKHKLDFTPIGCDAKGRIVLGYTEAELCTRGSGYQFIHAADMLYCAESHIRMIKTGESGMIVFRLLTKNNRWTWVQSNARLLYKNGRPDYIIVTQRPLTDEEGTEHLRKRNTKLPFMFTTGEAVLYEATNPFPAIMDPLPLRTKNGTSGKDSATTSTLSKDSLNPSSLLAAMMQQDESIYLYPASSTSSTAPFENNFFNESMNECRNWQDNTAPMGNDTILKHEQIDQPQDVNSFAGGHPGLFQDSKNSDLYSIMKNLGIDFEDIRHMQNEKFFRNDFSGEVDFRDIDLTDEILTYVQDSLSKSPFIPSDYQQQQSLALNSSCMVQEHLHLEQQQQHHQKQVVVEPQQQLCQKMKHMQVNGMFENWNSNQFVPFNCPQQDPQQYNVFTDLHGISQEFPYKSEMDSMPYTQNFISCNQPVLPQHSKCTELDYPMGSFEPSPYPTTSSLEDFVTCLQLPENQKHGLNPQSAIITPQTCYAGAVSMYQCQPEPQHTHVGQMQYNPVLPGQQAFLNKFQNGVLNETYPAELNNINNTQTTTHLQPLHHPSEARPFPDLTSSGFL
Assay: competition with […] photoaffinity ligand (PAL) in human AHR-expressing hepatic cytosol
Format: binding

SMILES: O=c1oc2cc(O)ccc2c2ccc(O)cc12 [UroA, Urolithin A]
- IC50: 800 nM
